# According to patent US20090304694A1, “Ang2 and Vegf Inhibitor Combinations” (AMGEN INC., priority 2006, published 2009):
# Tested on: Colo205 colorectal cancer cell xenografts
# Assay: Colo205 xenograft tumor volume, 2xCon4(C) (2.8 μg) and Avastin™ (10 μg) (Example 7)
# Type: in vivo, female athymic nude mice (CD1 Nu/Nu)
# Conditions: Avastin™ 10 μg IP twice per week; 2xCon4(C) 2.8 μg sc twice per week; day 14 to day 42
# Method: Xenografts of Colo205 cells injected into female athymic nude mice were treated with 2xCon4(C) alone, Avastin™, or a combination of the two as described below.
# Tumors were induced by injecting Colo205 cells subcutaneously into female athymic nude mice (CD1 Nu/Nu), 8-10 weeks old. All of the mice were obtained from Charles River Laboratories (Raleigh, N.C.). Cells were harvested from subconfluent cultures using trypsin/EDTA. The cells were greater than 95% viable by […] exclusion. 2×10^6 cells in 0.2 ml were injected subcutaneously into the right flank of each mouse.
# On day 14 after injection the tumors averaged 250 mm^3, and the mice were divided at random into four groups of 10 mice each. Group 1 received IgG1 at a dose of 10 μg and Fc fragment control at a dose of 2.8 μg and served as a negative control. Group 2 received Avastin™ at a dose of 10 μg and Fc fragment control at 2.8 μg. Group 3 received 2xCon4(C) at a dose of 2.8 μg and human IgG1 at a dose of 10 μg. […]
# The experiment was performed “blind” in accordance with the Cancer Pharmacology Blinded Study Guidelines. Tumors were measured and body weights were determined twice each week. Tumors were measured with an electronic digital caliper. Tumor volumes were calculated as the length×width×height measurements and expressed in mm^3.
# The data were analyzed by repeated measures ANOVA for tumor volumes over time using STATVIEW v. […]
substance,measurement,value
"Avastin™: recombinant humanized monoclonal antibody that binds directly to VEGF, sold by Genentech",reduction / inhibition of tumor growth compared to the control,18%
